Measured values: PubChem BioAssay (NCI)
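Compound exposure: 48 hours, 5 concentrations, 96-well plates. The concentration for 50% growth inhibition is given as GI50. TGI is the concentration that stops growth completely.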

How the values were obtained:
Experiment in all cases: growth of human tumour cells (NCI), 48 h
[1] = tested on: 786-0 renal
[2] = tested on: A549 NSCLC
[3] = tested on: ACHN renal
[4] = tested on: BT-549 breast
[5] = tested on: CAKI-1 renal
[6] = tested on: COLO 205 colon
[7] = tested on: DU-145 prostate
[8] = tested on: EKVX NSCLC
[9] = tested on: HCC-2998 colon
[10] = tested on: HCT-116 colon
[11] = tested on: HCT-15 colon
[12] = tested on: HL-60(TB) leukemia
[13] = tested on: HOP-62 NSCLC
[14] = tested on: HOP-92 NSCLC
[15] = tested on: HT29 colon
[16] = tested on: IGROV1 ovarian
[17] = tested on: KM12 colon
[18] = tested on: LOX IMVI melanoma
[19] = tested on: M14 melanoma
[20] = tested on: MCF7 breast
[21] = tested on: MDA-MB-231 breast
[22] = tested on: MDA-MB-435
[23] = tested on: MDA-N
[24] = tested on: MOLT-4 leukemia
[25] = tested on: NCI-H226 lung
[26] = tested on: NCI-H23 lung
[27] = tested on: NCI-H460 lung
[28] = tested on: NCI/ADR-RES ovarian
[29] = tested on: OVCAR-3 ovarian
[30] = tested on: OVCAR-5 ovarian
[31] = tested on: OVCAR-8 ovarian
[32] = tested on: PC-3 prostate
[33] = tested on: SF-295 CNS
[34] = tested on: SF-539 CNS
[35] = tested on: SK-MEL-2 melanoma
[36] = tested on: SK-MEL-28 melanoma
[37] = tested on: SK-MEL-5 melanoma
[38] = tested on: SK-OV-3 ovarian
[39] = tested on: SN12C renal
[40] = tested on: SNB-19 CNS
[41] = tested on: SNB-75 CNS
[42] = tested on: SW-620 colon
[43] = tested on: T-47D breast
[44] = tested on: TK-10 renal
[45] = tested on: U251 CNS
[46] = tested on: UACC-257 melanoma
[47] = tested on: UACC-62 melanoma
[48] = tested on: UO-31 renal
[49] = tested on: A498 renal
[50] = tested on: K-562 leukemia
[51] = tested on: MALME-3M melanoma
[52] = tested on: NCI-H522 lung
[53] = tested on: RPMI-8226 leukemia
[54] = tested on: RXF 393 renal
[55] = tested on: SF-268 CNS
[56] = tested on: CCRF-CEM leukemia
[57] = tested on: OVCAR-4 ovarian
[58] = tested on: SR leukemia

CC(=O)C1C(=O)C(=O)N(c2ccc(Cl)c(Cl)c2)C1=O (configuration not stated)
TGI [1]: > 100000 nM | TGI [2]: > 100000 nM | TGI [3]: > 100000 nM | TGI [4]: > 100000 nM | TGI [5]: > 100000 nM | TGI [6]: > 100000 nM | TGI [7]: > 100000 nM | TGI [8]: > 100000 nM | TGI [9]: > 100000 nM | TGI [10]: > 100000 nM | TGI [11]: > 100000 nM | TGI [12]: > 100000 nM | TGI [13]: > 100000 nM | TGI [14]: > 100000 nM | TGI [15]: > 100000 nM | TGI [16]: > 100000 nM | TGI [17]: > 100000 nM | TGI [18]: > 100000 nM | TGI [19]: > 100000 nM | TGI [20]: > 100000 nM | TGI [21]: > 100000 nM | TGI [22]: > 100000 nM | TGI [23]: > 100000 nM | TGI [24]: > 100000 nM | TGI [25]: > 100000 nM | TGI [26]: > 100000 nM | TGI [27]: > 100000 nM | TGI [28]: > 100000 nM | TGI [29]: > 100000 nM | TGI [30]: > 100000 nM | TGI [31]: > 100000 nM | TGI [32]: > 100000 nM | TGI [33]: > 100000 nM | TGI [34]: > 100000 nM | TGI [35]: > 100000 nM | TGI [36]: > 100000 nM | TGI [37]: > 100000 nM | TGI [38]: > 100000 nM | TGI [39]: > 100000 nM | TGI [40]: > 100000 nM | TGI [41]: > 100000 nM | TGI [42]: > 100000 nM | TGI [43]: > 100000 nM | TGI [44]: > 100000 nM | TGI [45]: > 100000 nM | TGI [46]: > 100000 nM | TGI [47]: > 100000 nM | TGI [48]: > 100000 nM

CC1OC(OC2C(O)CC(OC3C(O)CC(OC4CCC5(C)C(CCC6C5CCC5(C)C(C7=CC(=O)OC7)CCC65O)C4)OC3C)OC2C)CC(O)C1O (configuration not stated)
GI50 [1]: < 12.4 nM | TGI [1]: 21.9 nM | GI50 [49]: < 10 nM | TGI [49]: 30.1 nM | TGI [2]: 29.5 nM | TGI [3]: 106 nM | TGI [4]: 61.8 nM | TGI [5]: 52.7 nM | TGI [6]: 142 nM | GI50 [7]: < 12 nM | TGI [7]: < 20.4 nM | TGI [8]: 80.9 nM | TGI [9]: 584 nM | GI50 [10]: 11 nM | TGI [10]: 100 nM | TGI [11]: 86.7 nM | GI50 [12]: 45.1 nM | TGI [12]: 415 nM | TGI [13]: 41.7 nM | TGI [14]: 190 nM | TGI [15]: 123 nM | TGI [16]: 542 nM | TGI [50]: 204 nM | TGI [17]: 209 nM | GI50 [18]: < 12.1 nM | TGI [18]: 58.7 nM | GI50 [19]: 95.6 nM | TGI [19]: 268 nM | TGI [51]: 75.6 nM | TGI [20]: > 100000 nM | TGI [21]: 786 nM | TGI [22]: 147 nM | TGI [23]: 138 nM | GI50 [24]: 165 nM | TGI [25]: 174 nM | TGI [26]: 51.7 nM | GI50 [27]: < 11.6 nM | TGI [27]: < 18.7 nM | TGI [52]: 22.4 nM | TGI [28]: 293 nM | TGI [29]: 48.5 nM | TGI [30]: 148 nM | GI50 [31]: < 18.7 nM | TGI [31]: 70.8 nM | TGI [32]: 170 nM | TGI [53]: 1470 nM | TGI [54]: 78.5 nM | TGI [55]: 61.4 nM | TGI [33]: 99.8 nM | TGI [34]: 21.9 nM | TGI [35]: 447 nM | TGI [36]: 423 nM | TGI [37]: 62.4 nM | TGI [38]: 143 nM | TGI [39]: 130 nM | TGI [40]: 304 nM | TGI [41]: 653 nM | TGI [42]: 282 nM | GI50 [43]: 56 nM | TGI [43]: 1730 nM | TGI [44]: 87.6 nM | GI50 [45]: < 17.7 nM | TGI [45]: 46.7 nM | TGI [46]: 219 nM | TGI [47]: 152 nM | TGI [48]: 151 nM

C=CCc1cccc2cc(C(N)=O)c(=N)oc12
TGI [1]: > 100000 nM | TGI [49]: > 100000 nM | TGI [2]: > 100000 nM | TGI [3]: > 100000 nM | TGI [4]: > 100000 nM | TGI [5]: > 100000 nM | TGI [56]: > 100000 nM | TGI [6]: > 100000 nM | TGI [7]: > 100000 nM | TGI [9]: > 100000 nM | TGI [10]: > 100000 nM | TGI [11]: > 100000 nM | TGI [12]: > 100000 nM | TGI [13]: > 100000 nM | TGI [14]: > 100000 nM | TGI [15]: > 100000 nM | TGI [16]: 90300 nM | TGI [17]: > 100000 nM | TGI [18]: > 100000 nM | TGI [19]: > 100000 nM | TGI [21]: > 100000 nM | TGI [22]: > 100000 nM | TGI [23]: > 100000 nM | TGI [24]: > 100000 nM | TGI [25]: > 100000 nM | TGI [26]: > 100000 nM | TGI [27]: > 100000 nM | TGI [28]: > 100000 nM | TGI [29]: > 100000 nM | TGI [57]: > 100000 nM | TGI [30]: > 100000 nM | TGI [31]: > 100000 nM | TGI [32]: > 100000 nM | TGI [53]: > 100000 nM | TGI [54]: > 100000 nM | TGI [35]: > 100000 nM | TGI [36]: > 100000 nM | TGI [37]: > 100000 nM | TGI [38]: > 100000 nM | TGI [39]: > 100000 nM | TGI [40]: > 100000 nM | TGI [41]: > 100000 nM | TGI [58]: > 100000 nM | TGI [42]: > 100000 nM | TGI [43]: > 100000 nM | TGI [45]: > 100000 nM | TGI [46]: > 100000 nM | TGI [47]: > 100000 nM
